Measurements published in PMC12668310, “High‐Throughput Synthesis and Screening of a Cyanimide Library Identifies Selective Inhibitors of ISG15‐Specific Protease mUSP18” (Angewandte Chemie (International Ed. in English), 2025).
pIC50: −log10 of the molar value.

Columns and labels:
[1] = target: T1, Flag-mUSP18 (Mus musculus, UniProt Q9WTV6); assay: Gel-based ABPP with Rho-mISG15ct-PA probe in HEK293T cells overexpressing Flag-mUSP18; assay type: cell-based, murine; conditions: live HEK293T cells, Flag-mUSP18, 4 h treatment
T1 construct: expressed in transfected cells; host or cells: HEK293T
T1 sequence (Q9WTV6 1-368): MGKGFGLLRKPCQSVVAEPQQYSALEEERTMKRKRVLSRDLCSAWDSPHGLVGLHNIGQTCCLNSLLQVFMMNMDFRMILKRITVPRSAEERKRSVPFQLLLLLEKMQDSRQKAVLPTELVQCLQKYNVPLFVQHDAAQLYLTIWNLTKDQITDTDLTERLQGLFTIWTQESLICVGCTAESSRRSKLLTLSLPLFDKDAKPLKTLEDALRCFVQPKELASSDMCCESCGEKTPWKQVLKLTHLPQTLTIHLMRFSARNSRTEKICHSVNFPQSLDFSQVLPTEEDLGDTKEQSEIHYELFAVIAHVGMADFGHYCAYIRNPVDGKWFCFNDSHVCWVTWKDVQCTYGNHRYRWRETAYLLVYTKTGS
Protocol: To assess the cellular target engagement and cell permeability of these inhibitors, we performed activity‐based protein profiling. […] Following washing and cell lysis, cell extracts were incubated with a Rhodamine‐tagged murine ISG15 C‐terminal domain propargylamide activity‐based probe (Rho‐mISG15ct‐PA), which covalently labels the active site cysteine of active deISGylating enzymes.^[ [41] ^] The labelled enzymes were resolved by SDS‐PAGE and imaged by in‐gel fluorescence, where inhibition of USP18 is reflected by disappearance of the USP18‐probe‐labelled bands around 55 kDa (Figures 6a, S11A). All three inhibitors engaged with cellular mUSP18 in a dose‐dependent manner, with BB07CA902 and BB07CA28 showing efficient inhibition already at 1 µM concentration. […] The in‐cell selectivity of these inhibitors for USP18 over DUBs was confirmed in a similar ABPP experiment using a Rhodamine‐tagged ubiquitin propargylamide probe (Rho‐Ub‐PA),^[ [42] ^] which labels the active site cysteine of all active cysteine DUBs.
Figure 6 Inhibition of murine USP18 activity in living cells. a) Gel‐based ABPP potency assessment using a Rho‐mISG15ct‐PA probe in HEK293T cells overexpressing Flag‐mUSP18. At 24 h following transfection, cells were incubated with DMSO or increasing concentrations of indicated inhibitors for 4 h, lysed, and treated with Rho‐mISG15ct‐PA probe. Top panel: fluorescence scan. Middle panel: anti‐Flag western blot. Bottom panel: anti‐GAPDH western blot confirms equal loading. b) Accumulation of ISGylation in mouse IFN‐β‐stimulated EL4 cells. At 24 h following mouse IFN‐β treatment, cells were incubated with DMSO or increasing concentrations of indicated inhibitors for 4 h, lysed, and treated with Rho‐mISG15ct‐PA probe. […] Middle panel: fluorescence scan. […]
Samples were then diluted 3-fold with water and analyzed by mass spectrometry by injecting 2 μL into a Waters XEVO-G2 XS Q-TOF mass spectrometer equipped with an electrospray ion source in positive mode (capillary voltage 1.2 kV, desolvation gas flow 900 L/h, T = 60 °C) with a resolution of R = 26,000. […]

[2] = tested on: cellular ISGylation in EL4 cells; assay: ISGylation accumulation in mouse IFN-β-stimulated EL4 cells (anti-mISG15 western blot); assay type: cell-based; conditions: 4 h treatment, anti-mISG15 blot
Protocol: Figure 6 Inhibition of murine USP18 activity in living cells. a) Gel‐based ABPP potency assessment using a Rho‐mISG15ct‐PA probe in HEK293T cells overexpressing Flag‐mUSP18. At 24 h following transfection, cells were incubated with DMSO or increasing concentrations of indicated inhibitors for 4 h, lysed, and treated with Rho‐mISG15ct‐PA probe. Top panel: fluorescence scan. Middle panel: anti‐Flag western blot. Bottom panel: anti‐GAPDH western blot confirms equal loading. b) Accumulation of ISGylation in mouse IFN‐β‐stimulated EL4 cells. At 24 h following mouse IFN‐β treatment, cells were incubated with DMSO or increasing concentrations of indicated inhibitors for 4 h, lysed, and treated with Rho‐mISG15ct‐PA probe. Top panel: anti‐mISG15 western blot. Middle panel: fluorescence scan. Bottom panel: anti‐β‐actin western blot confirms equal loading.
Ultimately, we were interested in whether USP18 inhibitor treatment could result in a relevant phenotype in cells. USP18 is the major deISGylase to remove ISG15 from target proteins, and genetic inactivation of USP18 isopeptidase activity leads to enhanced ISGylation in vivo and in cells.^[ [26] ^] We therefore examined whether the USP18 inhibitors enhance cellular ISGylation. Accordingly, EL4 cells were stimulated with IFN‐β to induce the ISG15 machinery, prior to treatment with the inhibitors. After cell lysis and SDS‐PAGE, ISGylated proteins were stained by immunoblotting with an ISG15 antibody (Figure 6b, top panel). […] To confirm inhibition of endogenous USP18 in these experiments, samples were post‐lysis treated with Rho‐mISG15ct‐PA probe.
Generation of ISGylation and in-cell inhibition assay
Mouse EL4 cells were stimulated with 300 U/mL mouse IFN-β. At 24 hours following stimulation, cells were incubated with indicated compounds at the indicated final concentrations at 37 °C for 4 hours, then washed twice with PBS and harvested for further […]
Activity-based probe labelling
The in-cell inhibition of DUBs and mUSP18 was assessed using activity-based probe labelling assays. In brief, cell pellets were resuspended in HR buffer (50 mM Tris-HCl, 5 mM MgCl 2, 250 mM sucrose, 2 mM TCEP and a Protease inhibitor tablet (Roche), pH 7.4), and lysed by sonication (Bioruptor, Diagenode, high intensity for 10 minutes with an ON/OFF cycle of 30 seconds) at 4°C. 40 μg clarified cell lysate was incubated with Rhodamine-mISG15ct-propargylamide probe[1] (final concentration 1 μM) or Rhodamine-Ubiquitin-propargylamide probe[13] (final concentration 1 μM) at 37 °C for 30 min. Reactions were stopped by the addition of LDS (lithium dodecyl sulfate) sample buffer (Invitrogen Life Technologies, Carlsbad, CA, USA) containing 2.5% β-mercaptoethanol, followed by boiling for 7 minutes.
SDS-PAGE, in-gel fluorescence scanning, and immunoblotting
Samples were resolved on precast Bis-Tris NuPAGE Gels (Invitrogen, including 4-12%, and 10% for different samples) using MOPS buffer (Invitrogen Life Technologies, Carlsbad, CA, USA). For fluorescence scan, labeled enzymes were visualized by in-gel fluorescence using a Typhoon FLA 9500 imaging system (GE Healthcare Life Sciences) (Rhodamine channel for probe, Cy5 channel for protein marker).
For immunoblotting, proteins were transferred to a nitrocellulose membrane (Protan BA85, 0.45 μm, GE Healthcare) at 300 mA for 3 hours. […]

[3] = target: T2, mUSP18 (Mus musculus, UniProt Q9WTV6); assay: IC50 determination, fluorogenic ISG15CT-Rho-morpholine activity assay; assay type: biochemical, murine; conditions: after 30 min incubation; purified compound; ISG15CT-Rho-morpholine substrate
T2 construct: (46-368); His-tag (N); made in house
T2 sequence (Q9WTV6 46-368): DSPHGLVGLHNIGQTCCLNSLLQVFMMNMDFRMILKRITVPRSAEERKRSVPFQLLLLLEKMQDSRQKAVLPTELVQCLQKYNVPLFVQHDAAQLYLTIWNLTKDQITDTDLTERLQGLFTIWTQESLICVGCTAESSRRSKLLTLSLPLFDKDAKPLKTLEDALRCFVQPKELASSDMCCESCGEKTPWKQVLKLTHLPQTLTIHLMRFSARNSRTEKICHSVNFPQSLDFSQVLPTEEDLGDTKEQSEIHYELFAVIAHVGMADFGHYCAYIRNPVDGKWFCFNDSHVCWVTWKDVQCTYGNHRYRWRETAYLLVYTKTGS

[4] = target: T3, UCHL1 (Homo sapiens, UniProt P09936); assay: IC50 determination, fluorogenic Ub-Rho-morpholine activity assay; assay type: biochemical; conditions: after 30 min incubation; purified compound
T3 construct: (1-223); made in house
T3 sequence (P09936 1-223): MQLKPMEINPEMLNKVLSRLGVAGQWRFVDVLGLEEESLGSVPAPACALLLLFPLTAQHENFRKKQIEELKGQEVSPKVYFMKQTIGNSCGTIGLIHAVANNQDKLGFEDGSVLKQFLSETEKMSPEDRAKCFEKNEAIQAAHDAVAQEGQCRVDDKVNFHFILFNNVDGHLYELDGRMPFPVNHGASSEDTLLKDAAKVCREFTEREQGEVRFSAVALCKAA

[5] = target: T4, UCHL3 (Homo sapiens, UniProt P15374); assay: as above; assay type: biochemical; conditions: after 30 min incubation; purified compound
T4 construct: (1-230); made in house
T4 sequence (P15374 1-230): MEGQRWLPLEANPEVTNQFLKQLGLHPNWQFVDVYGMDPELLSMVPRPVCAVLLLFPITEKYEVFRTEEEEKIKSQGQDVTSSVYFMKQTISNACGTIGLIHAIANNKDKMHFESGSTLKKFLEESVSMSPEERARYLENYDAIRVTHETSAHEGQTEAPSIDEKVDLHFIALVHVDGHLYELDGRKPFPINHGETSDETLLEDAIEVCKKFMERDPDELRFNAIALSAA

[6] = target: USP16 (Homo sapiens, UniProt Q9Y5T5); assay: biochemical
Protocol: This panel included five proteases from the USP family, two from the UCH family, and one OTU. The IC50 values were determined in a well‐established biochemical activity assay using the fluorogenic substrate Ub‐Rho‐morpholine.^[ [33] ^]
(§1) Enzymes were pre-incubated with a concentration series of the compounds for 30 minutes at
(§2) room temperature, before addition of the substrate and direct read-out by fluorescence
(§3) intensity. Data is presented as mean ± SD, n=3.
USP16 Full length N-terminal His-tag Q9Y5T5 In-house, [Mons, 2 nM
IC50 and kinact/KI determination
(§4) The assays were performed at room temperature in “nonbinding surface flat bottom low flange”
(§5) TrisꞏHCl, 100 mM NaCl, pH 7.6, 2.0 mM cysteine, 1 mg/mL 3-[(3-cholamidopropyl)-
(§6) dimethylammonio]propanesulfonic acid (CHAPS), and 0.5 mg/mL γ-globulins from bovine
(§7) blood (BGG). […] The compounds were dissolved in 10
(§8) mM DMSO stocks, and appropriate volumes were transferred to the empty plates using a
(§9) Labcyte Echo550 acoustic dispenser. A DMSO back-fill was performed to obtain equal volumes of DMSO (400 μL) in each well. N-ethylmaleimide (NEM, 10 mM) was used a positive
(§10) steps were performed on a Biotek MultiflowFX liquid dispenser. A 10 μL portion of buffer was added and the plate was vigorously shaken for 20s. Next, 5 μL of recombinant enzyme (4x final concentration) was added followed by incubation for 1h. A 5 μL portion of the substrate
(§11) (Ub-RhoMP[2] for all DUBs, ISG15ct-RhoMP (vide supra) for USP18 and Z-FR-AMC [Bachem,
(§12) RhoMP, 10 µM for Z-FR-AMC), and the increase in fluorescence over time was recorded using
(§13) excitation 360 nm, emission 450 nm for AMC). The initial enzyme velocities were calculated
(§14) from the slopes, normalized to the positive and negative controls, and plotted against the
(§15) inhibitor concentrations using the built-in equation “[inhibitor] vs response − variable slope
(§16) (four parameters), least-squares fit” with constraints “Bottom = 0” and “Top = 100” in GraphPad
(§17) Prism 7 software to obtain the IC50 values.
(§18) All data fitting and calculations were done using GraphPad Prism 7 software.

[7] = target: T5, USP7 (Homo sapiens, UniProt Q93009); assay: IC50 determination, fluorogenic Ub-Rho-morpholine activity assay; assay type: biochemical; conditions: after 30 min incubation; purified compound
T5 construct: (1-1102); GST (cleaved yes); made in house

[8] = target: T6, USP30 (Homo sapiens, UniProt Q70CQ3); assay: biochemical
T6 sequence (Q70CQ3 57-517): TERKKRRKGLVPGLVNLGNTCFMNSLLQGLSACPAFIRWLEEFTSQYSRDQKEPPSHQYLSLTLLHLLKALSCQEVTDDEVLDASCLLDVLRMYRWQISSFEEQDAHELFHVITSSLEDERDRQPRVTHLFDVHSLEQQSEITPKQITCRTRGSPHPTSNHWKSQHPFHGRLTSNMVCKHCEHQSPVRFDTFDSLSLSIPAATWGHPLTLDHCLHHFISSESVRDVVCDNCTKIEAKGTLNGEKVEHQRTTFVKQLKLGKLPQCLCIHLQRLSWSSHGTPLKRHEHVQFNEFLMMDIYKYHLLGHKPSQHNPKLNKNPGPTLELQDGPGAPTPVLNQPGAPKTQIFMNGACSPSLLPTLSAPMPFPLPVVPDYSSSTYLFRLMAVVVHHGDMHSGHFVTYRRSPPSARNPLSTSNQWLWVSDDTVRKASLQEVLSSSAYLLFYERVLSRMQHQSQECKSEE
Protocol: This panel included five proteases from the USP family, two from the UCH family, and one OTU. The IC50 values were determined in a well‐established biochemical activity assay using the fluorogenic substrate Ub‐Rho‐morpholine.^[ [33] ^] For USP18, which is unreactive to Ub but specific for ISG15, we used the ISG15CT‐Rho‐morpholine (consisting of the C‐terminal domain of ISG15) substrate to monitor its activity (see Supporting Information for preparation of this substrate).
as §1, §2, §3
room temperature, followed by the addition of substrate and direct read-out by fluorescence
IC50 and kinact/KI determination
as §4, §5, §6, §7, §8, §9, §10, §11, §12, §13, §14, §15, §16, §17, §18

[9] = target: T7, USP32 (Homo sapiens, UniProt Q8NFA0); assay: IC50 determination, fluorogenic Ub-Rho-morpholine activity assay; assay type: biochemical; conditions: after 30 min incubation; purified compound
T7 construct: (1-1604); His-tag (N); made in house
T7 sequence (Q8NFA0 whole entry): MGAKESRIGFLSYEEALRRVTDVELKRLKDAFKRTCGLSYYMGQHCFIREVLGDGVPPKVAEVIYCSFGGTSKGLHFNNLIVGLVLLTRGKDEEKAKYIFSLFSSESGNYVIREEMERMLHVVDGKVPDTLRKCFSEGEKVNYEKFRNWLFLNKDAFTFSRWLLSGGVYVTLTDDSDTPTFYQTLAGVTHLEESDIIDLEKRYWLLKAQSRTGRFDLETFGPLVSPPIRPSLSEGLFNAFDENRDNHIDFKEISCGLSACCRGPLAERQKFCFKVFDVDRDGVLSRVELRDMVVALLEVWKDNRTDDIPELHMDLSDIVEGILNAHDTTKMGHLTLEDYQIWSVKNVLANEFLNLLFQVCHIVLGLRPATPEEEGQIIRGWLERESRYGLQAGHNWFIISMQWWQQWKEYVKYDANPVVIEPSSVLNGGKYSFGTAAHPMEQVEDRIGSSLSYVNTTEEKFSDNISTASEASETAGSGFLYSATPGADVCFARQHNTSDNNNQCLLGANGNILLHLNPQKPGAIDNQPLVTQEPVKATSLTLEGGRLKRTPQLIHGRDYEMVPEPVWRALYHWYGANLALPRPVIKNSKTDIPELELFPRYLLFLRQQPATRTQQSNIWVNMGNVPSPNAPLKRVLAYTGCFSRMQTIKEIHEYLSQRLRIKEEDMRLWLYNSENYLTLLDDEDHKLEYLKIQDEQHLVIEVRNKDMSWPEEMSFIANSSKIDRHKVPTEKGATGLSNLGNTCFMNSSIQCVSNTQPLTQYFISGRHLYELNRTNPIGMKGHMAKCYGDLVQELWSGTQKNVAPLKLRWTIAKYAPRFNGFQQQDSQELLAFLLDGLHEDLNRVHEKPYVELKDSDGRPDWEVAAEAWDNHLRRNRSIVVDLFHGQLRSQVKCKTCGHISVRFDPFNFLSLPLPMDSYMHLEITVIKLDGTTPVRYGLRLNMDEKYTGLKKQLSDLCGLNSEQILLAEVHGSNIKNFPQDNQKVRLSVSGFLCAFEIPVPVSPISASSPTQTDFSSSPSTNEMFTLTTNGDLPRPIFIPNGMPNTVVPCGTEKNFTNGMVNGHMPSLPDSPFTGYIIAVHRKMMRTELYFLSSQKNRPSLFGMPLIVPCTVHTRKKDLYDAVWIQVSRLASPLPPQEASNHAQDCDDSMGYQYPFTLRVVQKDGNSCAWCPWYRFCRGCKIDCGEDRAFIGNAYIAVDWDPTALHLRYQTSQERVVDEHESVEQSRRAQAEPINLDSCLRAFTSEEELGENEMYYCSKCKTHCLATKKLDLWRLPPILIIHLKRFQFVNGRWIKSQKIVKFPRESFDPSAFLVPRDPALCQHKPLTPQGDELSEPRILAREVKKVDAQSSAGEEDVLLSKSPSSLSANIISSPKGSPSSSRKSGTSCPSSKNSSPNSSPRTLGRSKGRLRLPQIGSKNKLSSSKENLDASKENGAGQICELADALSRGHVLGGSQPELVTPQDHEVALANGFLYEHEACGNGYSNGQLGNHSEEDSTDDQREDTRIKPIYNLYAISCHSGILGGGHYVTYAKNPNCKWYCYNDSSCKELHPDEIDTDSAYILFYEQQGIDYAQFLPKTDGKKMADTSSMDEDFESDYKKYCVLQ

USP16, sequence (Q9Y5T5 22-823): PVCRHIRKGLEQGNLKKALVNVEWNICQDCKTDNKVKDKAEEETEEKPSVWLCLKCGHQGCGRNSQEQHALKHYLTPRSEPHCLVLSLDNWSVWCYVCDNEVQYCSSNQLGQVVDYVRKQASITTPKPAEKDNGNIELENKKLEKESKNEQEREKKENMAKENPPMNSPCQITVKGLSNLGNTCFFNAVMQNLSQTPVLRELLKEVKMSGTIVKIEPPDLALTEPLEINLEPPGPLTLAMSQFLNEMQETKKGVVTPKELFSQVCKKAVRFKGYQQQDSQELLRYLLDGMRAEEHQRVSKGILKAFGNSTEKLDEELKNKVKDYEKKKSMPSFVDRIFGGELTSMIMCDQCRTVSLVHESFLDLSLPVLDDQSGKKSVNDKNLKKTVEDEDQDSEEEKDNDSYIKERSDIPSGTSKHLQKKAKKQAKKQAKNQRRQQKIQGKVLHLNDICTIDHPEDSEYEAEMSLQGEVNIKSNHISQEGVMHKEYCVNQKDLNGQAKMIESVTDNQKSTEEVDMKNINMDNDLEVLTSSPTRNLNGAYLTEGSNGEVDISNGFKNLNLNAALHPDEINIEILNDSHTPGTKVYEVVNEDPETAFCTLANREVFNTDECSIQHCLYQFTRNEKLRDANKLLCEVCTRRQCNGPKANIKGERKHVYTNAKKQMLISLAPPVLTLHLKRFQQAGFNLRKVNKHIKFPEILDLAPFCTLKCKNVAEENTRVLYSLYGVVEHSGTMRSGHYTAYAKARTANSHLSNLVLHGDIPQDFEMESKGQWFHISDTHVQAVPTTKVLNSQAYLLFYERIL
T5 sequence (Q93009 whole entry): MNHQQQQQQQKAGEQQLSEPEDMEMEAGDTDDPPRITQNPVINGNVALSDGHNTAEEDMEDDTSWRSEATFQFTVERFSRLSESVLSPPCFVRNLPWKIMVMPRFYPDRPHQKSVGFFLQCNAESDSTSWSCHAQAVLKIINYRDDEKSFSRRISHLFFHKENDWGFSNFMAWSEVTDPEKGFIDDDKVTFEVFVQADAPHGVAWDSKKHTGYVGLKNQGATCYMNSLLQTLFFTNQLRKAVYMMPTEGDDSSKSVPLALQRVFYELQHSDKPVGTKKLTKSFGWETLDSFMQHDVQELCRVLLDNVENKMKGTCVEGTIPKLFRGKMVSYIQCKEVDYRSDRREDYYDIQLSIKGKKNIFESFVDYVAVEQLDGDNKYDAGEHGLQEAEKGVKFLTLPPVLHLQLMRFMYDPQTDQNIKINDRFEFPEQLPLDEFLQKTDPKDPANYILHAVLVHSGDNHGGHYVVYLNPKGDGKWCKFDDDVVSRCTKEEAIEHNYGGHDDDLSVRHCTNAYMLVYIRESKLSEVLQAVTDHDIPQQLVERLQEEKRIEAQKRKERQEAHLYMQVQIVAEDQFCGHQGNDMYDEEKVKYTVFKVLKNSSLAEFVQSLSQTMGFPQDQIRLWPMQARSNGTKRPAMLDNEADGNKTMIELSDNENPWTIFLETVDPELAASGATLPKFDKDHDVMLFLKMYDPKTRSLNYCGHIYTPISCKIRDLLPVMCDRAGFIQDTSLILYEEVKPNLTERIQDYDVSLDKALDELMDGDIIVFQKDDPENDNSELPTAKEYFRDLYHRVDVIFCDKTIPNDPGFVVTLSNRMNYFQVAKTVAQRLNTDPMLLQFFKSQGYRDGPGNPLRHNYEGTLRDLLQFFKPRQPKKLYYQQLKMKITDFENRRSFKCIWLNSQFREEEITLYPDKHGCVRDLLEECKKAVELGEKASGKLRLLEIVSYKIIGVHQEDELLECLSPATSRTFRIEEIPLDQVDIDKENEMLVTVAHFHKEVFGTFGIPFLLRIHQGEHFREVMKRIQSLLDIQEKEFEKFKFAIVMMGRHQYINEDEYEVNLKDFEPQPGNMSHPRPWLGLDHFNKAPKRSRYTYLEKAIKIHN

SMILES | concentration at which inhibition of mUSP18 probe labelling is observed [1] [µM] | effect on cellular ISGylation [2] | pIC50 [3] | pIC50 [4] | pIC50 [5] | pIC50 [6] | pIC50 [7] | pIC50 [8] | pIC50 [9]
Cc1cc(C(=O)N[C@@H]2C[C@@H]3CN(C#N)C[C@@H]3C2)ccc1C(C)C [BB06CA902] | 100 | hardly affected ISGylation | – | – | – | – | – | – | –
COc1ccccc1-c1cc(C(=O)N[C@@H]2CCN(C#N)C2)n[nH]1 [Compound 2] | – | – | 7.54 | 3.96 | 3.77 | 4.65 | 4.28 | 7.23 | 7.14
N#CN1CC[C@@H](NC(=O)c2ccc(N3CCCC3)cc2F)C1 [Compound 3] | – | – | 5.26 | < 3.70 | < 3.70 | < 3.70 | 3.77 | 5.62 | 4.23
N#CN1CC[C@@H](NC(=O)c2ccc(F)c(F)c2)C1 [Compound 4] | – | – | 5.01 | < 3.70 | < 3.70 | 3.58 | 3.68 | 6.05 | 3.74
